According to US20240218011A1, “GLUCOCORTICOID RECEPTOR AGONISTS AND CONJUGATES THEREOF” (FireFly Bio, Inc., priority 2022, published 2024):

Key:
[1] = target: T1, Glucocorticoid Receptor (GR) (Homo sapiens, UniProt P04150); test: GR reporter assay (GR-GAL4 Reporter (Luc)-HEK293 cells, Steady-Glo luciferase); assay type: cell-based; details: 24 hours, read-out: GR reporter agonist
T1 construct: A GAL4-responsive firefly luciferase reporter is the read-out; Some cells also express CD40, which is irrelevant for the free small molecules
T1 sequence (P04150 524-777 limits assumed): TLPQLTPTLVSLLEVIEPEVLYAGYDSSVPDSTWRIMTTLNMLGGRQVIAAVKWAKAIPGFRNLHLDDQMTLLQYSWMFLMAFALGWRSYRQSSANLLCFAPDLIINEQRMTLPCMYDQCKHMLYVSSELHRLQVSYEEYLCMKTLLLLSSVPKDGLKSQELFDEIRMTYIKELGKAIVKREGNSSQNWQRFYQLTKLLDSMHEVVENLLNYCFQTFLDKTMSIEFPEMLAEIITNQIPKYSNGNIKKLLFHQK
Method: Certain GR agonist compounds of the present disclosure were tested in a GR reporter assay. Briefly, CD40 expressing GR-GAL4 Reporter (Luc)-HEK293 or parental GR-GAL4 reporter (Luc)-HEK293 cells were harvested from culture and seeded wells at a density of ˜30,000 cells per well in 45 μl of assay medium. Cells were incubated at 37° C. in a CO2 incubator overnight. […] The plates were incubated at 37° C. in a CO2 incubator for 24 hours. The Steady-Glo Luciferase Assay System (Promega), following manufacturer's instructions, was used to detect luminescence, which was measured using a luminometer.
The average background luminescence (cell-free control wells) was substracted from the luminescence reading of all wells. […] The EC50 value for each conjugate was determined in both CD40 expressing and parental GR-GAL4 Reporter (Luc)-HEK293 cells and the ratio was used to as a measure of linker stability and non-specific uptake.

[2] = test system: Human monocyte derived dendritic cells and allogeneic CD3+ T cells; test: Allo mixed lymphocyte assay (monocyte derived dendritic cells + allogeneic CD3+ T cells), cytokines by MSD ELISA; assay type: cell-based; details: 100 nM, 48 hrs co-culture, mean of duplicates
Method: Human monocyte derived dendritic cells were derived in vitro from healthy human donor CD 14^+ monocytes, isolated from blood by standard cell marker negative selection with antibody coated beads, by culture of the monocytes under a standard dendritic cell generation protocol with added GM-CSF and IL4 for 6 days. […] Conjugates, protein, and small molecule controls were added at 100 nM immediately after. After 48 hrs of co-culture supernatants were collected from wells and cytokine levels for T cell derived cytokines (IL2, IFNγ) and dendritic cell derived cytokines (IL6, IL 12p40) were measured by MSD multiplex ELISA and plate reader per manufacturer's instructions (Meso Scale Diagnostics LLC).

[3] = test system: GR-GAL4 Reporter (Luc)-HEK293 cell line stably expressing membrane human BAFF (memBAFF); test: GR-GAL4 luciferase reporter assay, memBAFF reporter cell line; assay type: cell-based
Method: (§1) To determine the level of GR agonism at the end of the incubation luciferase levels were determined with the Steady-Glo Luciferase Assay System (Promega, cat #E2520 or E2550). The results were analyzed with Graphpad Prism software v9.1 (Graphpad Inc) to determine EC50.
(§2) The memBAFF and parental GR-GAL4 luciferase cell reporter cell lines were plated in 96 well plates in complete DMEM media. […] To determine the level of GR agonism found for the different treatments, at the end of the incubation firefly luciferase was measured as per manufacturer's instructions with the Steady-Glo Luciferase Assay System (Promega, cat #E2520 or E2550) and then analyzed with Graphpad Prism software (Graphpad Inc v9.1) to determine EC50.

[4] = test system: parental GR-GAL4 Reporter (Luc)-HEK293 cell line (non-BAFF-expressing); test: GR-GAL4 luciferase reporter assay, parental reporter cell line (Anti-BAFF conjugates); assay type: cell-based
Method: as §1, §2

[5] = test system: antigen-driven (FITC) ear inflammation; test: FITC antigen-driven ear inflammation in mice (ear swelling); assay type: in vivo, Balb/c mice; details: 24 hours after FITC rechallenge, ip 20 mpk conjugate or antibody, 10 mpk dexamethasone
Method: Female Balb/c mice aged 6-7 weeks (Envigo Labs) were used. On day 0 ear thickness was measured in all mice using microcalipers. On day 0 mice were then sensitized to the antigen fluorescsein isothiocyanate (FITC) on a shaved flank by application of 50 microliters of 1% FITC in a formulation of 50% acetone:50% dibutyl phthalate. […] After 24 hours ear thickness was determined on the treated ear. […] Animals were bled for serum and sacrificed on day 9. […] Ear thickness and ELISA results were analyzed for differences in means with GraphPad Prism software by one-way ANOVA with Dunnett's multiple comparisons.

| EC50 [1] [nM] | Compound | further results |
| --- | --- | --- |
| 25.1 | C[C@]12C=CC(=O)C=C1CC[C@@H]1[C@@H]2[C@@H](O)C[C@@]2(C)[C@H]1C[C@H]1O[C@@H](c3ccc(Cc4c[nH]nn4)cc3)O[C@]12C(=O)CO [Compound 3] |  |
| 172 | C[C@]12C=CC(=O)C=C1CC[C@@H]1[C@@H]2[C@@H](O)C[C@@]2(C)[C@H]1C[C@H]1O[C@@H](/C=C/c3cccc(N)c3)O[C@]12C(=O)CO [Compound 67] |  |
| 0.89 | C[C@]12C=CC(=O)C=C1CC[C@@H]1[C@@H]2[C@@H](O)C[C@@]2(C)[C@H]1C[C@H]1O[C@@H](c3sccc3F)O[C@]12C(=O)CO [Compound 53a] |  |
| 4.9 | C[C@]12C=CC(=O)C=C1CC[C@@H]1[C@@H]2[C@@H](O)C[C@@]2(C)[C@H]1C[C@H]1O[C@@H](C3CCC3)O[C@]12C(=O)CO [Compound 85] |  |
| 32.6 | C[C@]12C=CC(=O)C=C1CC[C@@H]1[C@@H]2[C@@H](O)C[C@@]2(C)[C@H]1C[C@H]1O[C@@H](/C=C/C3CC3)O[C@]12C(=O)CO [Compound 58] |  |
| 47 | C[C@]12C=CC(=O)C=C1CC[C@@H]1[C@@H]2[C@@H](O)C[C@@]2(C)[C@H]1C[C@H]1O[C@@H](c3ccc4c(c3)OCCO4)O[C@]12C(=O)CO [Compound 7] |  |
| 49.1 | Cn1cc([C@@H]2O[C@@H]3C[C@H]4[C@@H]5CCC6=CC(=O)C=C[C@]6(C)[C@H]5[C@@H](O)C[C@]4(C)[C@]3(C(=O)CO)O2)cn1 [Compound 5] |  |
| 25.2 | C[C@]12C=CC(=O)C=C1CC[C@@H]1[C@@H]2[C@@H](O)C[C@@]2(C)[C@H]1C[C@H]1O[C@@H](c3ccc4c(c3)OCO4)O[C@]12C(=O)CO [Compound 6] |  |
| 22.2 | Cc1nn[nH]c1-c1ccc([C@@H]2O[C@@H]3C[C@H]4[C@@H]5CCC6=CC(=O)C=C[C@]6(C)[C@H]5[C@@H](O)C[C@]4(C)[C@]3(C(=O)CO)O2)cc1 [Compound 1] |  |
| 21.8 | Cn1nccc1[C@@H]1O[C@@H]2C[C@H]3[C@@H]4CCC5=CC(=O)C=C[C@]5(C)[C@H]4[C@@H](O)C[C@]3(C)[C@]2(C(=O)CO)O1 [Compound 4] |  |

More lines, now with the values behind:

| Compound | EC50 [1] [nM] | further results |
| --- | --- | --- |
| C[C@]12C=CC(=O)C=C1[C@@H](F)C[C@H]1[C@@H]3C[C@H]4O[C@@H](c5ccc(Oc6ccccc6)c(F)c5)O[C@@]4(C(=O)CO)[C@@]3(C)C[C@H](O)[C@@]12F [Compound 18] | 1.2 |  |
| C[C@]12C=CC(=O)C=C1CC[C@H]1[C@@H]3C[C@H]4O[C@@H](c5ccccc5)O[C@@]4(C(=O)CO)[C@@]3(C)C[C@H](O)[C@@]12F [Compound 8] | 1.1 |  |
| C[C@]12C=CC(=O)C=C1[C@@H](F)C[C@H]1[C@@H]3C[C@H]4O[C@@H](C56CC(C5)C6)O[C@@]4(C(=O)CO)[C@@]3(C)C[C@H](O)[C@@]12F [Compound 15] | 2.9 |  |
| C[C@]12C=CC(=O)C=C1[C@@H](F)C[C@H]1[C@@H]3C[C@H]4O[C@@H](c5cc6c(s5)CCCC6)O[C@@]4(C(=O)CO)[C@@]3(C)C[C@H](O)[C@@]12F [Compound 43] | 3.7 |  |
| belimumab [Anti-BAFF (belimumab)] |  | IFNγ % Media [2]: 140 % Media; IL2 % Media [2]: 72 % Media; IL12p40 % Media [2]: 139 % Media; IL6 % Media ([2]; LLOQ = lower limit of quantitation in the MSD assay): 121 % Media |
| C[C@]12C=CC(=O)C=C1[C@@H](F)C[C@H]1[C@@H]3C[C@H]4O[C@@H](c5cccc(F)c5)O[C@@]4(C(=O)CN)[C@@]3(C)C[C@H](O)[C@@]12F [Compound 16] | 39.1 |  |
| C[C@]12C=CC(=O)C=C1[C@@H](F)C[C@H]1[C@@H]3C[C@H]4O[C@@H](c5ccc(F)s5)O[C@@]4(C(=O)CO)[C@@]3(C)C[C@H](O)[C@@]12F [Compound 27] | 0.46 |  |
| C[C@]12C=CC(=O)C=C1[C@@H](F)C[C@H]1[C@@H]3C[C@H]4O[C@@H](C#Cc5ccccc5)O[C@@]4(C(=O)CO)[C@@]3(C)C[C@H](O)[C@@]12F [Compound 40] | 14.3 |  |
| belimumab [BAFF mAb (belimumab)] |  | EC50 ([3]; Table 22, 24 hour incubation, * = low confidence in EC50 due to curve fit, read-out: EC50 (nM) Mem(BAFF) line): > 500 nM; GR agonism over the complete dilution series ([3]; memBAFF line, 500 nM-[…]): no GR agonism; EC50 ([4]; Table 22, 24 hour incubation, * = low confidence in EC50 due to curve fit): > 500 nM; GR agonism over the complete dilution series ([4]; parental line, 500 nM-[…]): no GR agonism |
| C[C@]12C=CC(=O)C=C1[C@@H](F)C[C@H]1[C@@H]3C[C@H]4O[C@@H](c5ccc(OCC(F)(F)CN)c(F)c5)O[C@@]4(C(=O)CO)[C@@]3(C)C[C@H](O)[C@@]12F [Compound 19] | 23.8 |  |
| C[C@]12C=CC(=O)C=C1[C@@H](F)C[C@H]1[C@@H]3C[C@H]4O[C@@H](C5CC6(CCOCC6)C5)O[C@@]4(C(=O)CO)[C@@]3(C)C[C@H](O)[C@@]12F [Compound 42] | 9 |  |
| C[C@]12C=CC(=O)C=C1[C@@H](F)C[C@H]1[C@@H]3C[C@H]4O[C@@H](c5sccc5F)O[C@@]4(C(=O)CO)[C@@]3(C)C[C@H](O)[C@@]12F [Compound 30a] | 0.44 |  |
| C[C@]12C=CC(=O)C=C1CC[C@H]1[C@@H]3C[C@H]4O[C@@H](c5sccc5F)O[C@@]4(C(=O)CO)[C@@]3(C)C[C@H](O)[C@@]12F [Compound 52a] | 0.57 |  |
| C[C@]12C=CC(=O)C=C1CC[C@@H]1[C@@H]2[C@@H](O)C[C@@]2(C)[C@H]1C[C@H]1O[C@@H](c3ccc(Cn4ccnn4)cc3)O[C@]12C(=O)CO [Compound 2] | 17 |  |
| C[C@]12C=CC(=O)C=C1CC[C@H]1[C@@H]3C[C@H]4O[C@@H](C5CCC5)O[C@@]4(C(=O)CO)[C@@]3(C)C[C@H](O)[C@@]12F [Compound 51] | 1.2 |  |
| CCCC1O[C@@H]2C[C@H]3[C@@H]4CCC5=CC(=O)C=C[C@]5(C)[C@H]4[C@@H](O)C[C@]3(C)[C@]2(C(=O)CO)O1 (stereo partly shown) [budesonide, reference compound] |  | IFNγ % Media [2]: 1 % Media; IL2 % Media [2]: 14 % Media; IL12p40 % Media [2]: 1 % Media |
| C[C@]12C=CC(=O)C=C1[C@@H](F)C[C@H]1[C@@H]3C[C@H]4O[C@@H](C5CCC5)O[C@@]4(C(=O)CO)[C@@]3(C)C[C@H](O)[C@@]12F [Compound 14] | 0.68 |  |
| C[C@@H](c1ccccc1)[C@@H]1O[C@@H]2C[C@H]3[C@@H]4C[C@H](F)C5=CC(=O)C=C[C@]5(C)[C@@]4(F)[C@@H](O)C[C@]3(C)[C@]2(C(=O)CO)O1 [Compound 50] | 23 |  |
| C[C@@H]1C[C@H]2[C@@H]3CCC4=CC(=O)C=C[C@]4(C)[C@@]3(F)[C@@H](O)C[C@]2(C)[C@@]1(O)C(=O)CO [dexamethasone, reference compound] |  | Mean Swelling (mm) [5]: 0.07 mm |
